Assay results taken from PubChem BioAssay (NCI).
Where “and” joins values, the source holds several entries; their conditions need not be identical. Equal entries are not always repeated.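 Cultured in 96-well plates, cells were exposed to test compound for 48 hours across five concentrations. At the GI50, growth is halved. The concentration for full growth arrest is given as TGI.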

Assays:
Experiment in all cases: NCI anticancer screen, dose series, 48 h
SK-MEL-2 melanoma = test system: SK-MEL-2 melanoma
M14 melanoma = test system: M14 melanoma
OVCAR-3 ovarian = test system: OVCAR-3 ovarian
NCI/ADR-RES ovarian = test system: NCI/ADR-RES ovarian
HCT-116 colon = test system: HCT-116 colon
NCI-H460 lung = test system: NCI-H460 lung
SW-620 colon = test system: SW-620 colon
HCC-2998 colon = test system: HCC-2998 colon
SR leukemia = test system: SR leukemia
UO-31 renal = test system: UO-31 renal

Compound | TGI (SK-MEL-2 melanoma) | TGI (M14 melanoma) | TGI (OVCAR-3 ovarian) | TGI (NCI/ADR-RES ovarian) | TGI (HCT-116 colon) | TGI (NCI-H460 lung) | TGI (SW-620 colon) | TGI (HCC-2998 colon) | TGI (SR leukemia) [µM] | TGI (UO-31 renal) | GI50 (M14 melanoma) | GI50 (OVCAR-3 ovarian) | GI50 (UO-31 renal) | GI50 (SK-MEL-2 melanoma) [µM] | GI50 (NCI/ADR-RES ovarian) [µM] | GI50 (HCT-116 colon) [µM] | GI50 (NCI-H460 lung) [µM] | GI50 (SW-620 colon) [µM] | GI50 (HCC-2998 colon) [µM]
COCC12CCC(OC)C34C5CC6(O)C(OC)CC(OC(C)=O)(C5C6OC(=O)c5ccccc5)C(C(OC)C13)C4N(C)C2 (stereo not given) | > 100 µM | > 100 µM | > 100 µM | > 100 µM | > 100 µM | > 100 µM | > 100 µM | > 100 µM | > 100 | > 100 µM |  |  |  |  |  |  |  |  | 
NC(CC(O)(c1ccccc1)c1ccccc1)c1ccccc1S (stereo not given) | 33.2 µM | 29 µM | 29.5 µM | 33.5 µM | 26.2 µM | 38.3 µM | 36.4 µM | 50 µM | > 100 | 23.5 µM |  |  |  |  |  |  |  |  | 
O=C1CS[C@@](CC(c2ccc(Cl)cc2)c2ccc(Cl)cc2)(c2ccc(Cl)cc2)N1 | 87.6 µM | > 100 µM | 38 µM | > 100 µM | > 100 µM | > 100 µM | > 100 µM | > 100 µM | 26.3 | > 100 µM |  |  |  |  |  |  |  |  | 
COc1ccc(CNc2nc3cc(C(F)(F)F)ccc3nc2-c2ccccc2)cc1OC | > 100 µM | > 100 µM | > 100 µM | > 100 µM | > 100 µM | 46.5 µM | > 100 µM | 45.9 µM | > 100 | > 100 µM |  |  |  |  |  |  |  |  | 
CN(C)CCNC(=O)c1ccc(Cl)c2cc3ccccc3nc12 | 4.94 µM | 2.62 µM | 6.88 µM | 5.65 µM | 5.48 µM | 3.9 µM | 6.68 µM | 3.52 µM | 3.03 | 11 µM |  |  |  |  |  |  |  |  | 
Cc1cc(N(CCC#N)CCC#N)ccc1/C=C1\SC(=S)NC1=O | > 100 µM | > 100 µM | > 100 µM | > 100 µM | > 100 µM | > 100 µM | > 100 µM | > 100 µM | > 100 | > 100 µM |  |  |  |  |  |  |  |  | 
CCOC(=O)CCC(NC(=O)Cc1ccc(Oc2nc3ccccc3nc2-c2ccccc2)cc1)C(=O)OCC (stereo not given) | > 100 µM | > 100 µM | > 100 µM | > 100 µM | > 100 µM | > 100 µM | > 100 µM | > 100 µM | > 100 | > 100 µM |  |  |  |  |  |  |  |  | 
COP(=O)(O)C(N)Cc1c[nH]c2ccccc12 (stereo not given) | > 100 µM | > 100 µM | > 100 µM | > 100 µM | > 100 µM | > 100 µM | > 100 µM | > 100 µM | > 100 | > 100 µM |  |  |  |  |  |  |  |  | 
CC(=O)OC(C)(C)CCC(=O)[C@](C)(O)[C@H]1[C@H](O)C[C@@]2(C)[C@@H]3CC=C4C(C)=C(OC5OC(CO)C(O)C(O)C5O)C(=O)C[C@@H]4[C@]3(C)C(=O)C[C@]12C (stereo not given in full) | > 100 µM | > 100 µM | > 100 µM | > 100 µM | > 100 µM | > 100 µM | > 100 µM | > 100 µM | > 100 | > 100 µM |  |  |  |  |  |  |  |  | 
COc1cc(OC2OC(COC(=O)c3cc(O)c(O)c(O)c3)C(O)C(O)C2O)ccc1O (stereo not given) | > 100 µM | > 100 µM | > 100 µM | > 100 µM | > 100 µM | > 100 µM | > 100 µM | > 100 µM | > 100 | > 100 µM |  |  |  |  |  |  |  |  | 
CC(=O)N(C(C)=O)n1c(Cc2ccc(C)cc2)nn(C(C)=O)c1=O | > 100 µM | > 100 µM | > 100 µM | > 100 µM | > 100 µM | > 100 µM | > 100 µM | > 100 µM | > 100 | > 100 µM |  |  |  |  |  |  |  |  | 
c1csc(-c2ccsc2-c2ccsc2)c1 | 42.3 µM | > 100 µM | 87.6 µM | > 100 µM | > 100 µM | > 100 µM | > 100 µM | > 100 µM | > 100 | > 100 µM |  |  |  |  |  |  |  |  | 
CCOC(=O)C(NC(=O)CC)(Nc1ccc(F)c(Cl)c1)C(F)(F)F (stereo not given) | > 100 µM | > 100 µM | > 100 µM | > 100 µM | > 100 µM | > 100 µM | > 100 µM | > 100 µM | > 100 | > 100 µM |  |  |  |  |  |  |  |  | 
Cc1cc(O)cc(O)c1C(=O)O[C@]1(C)C(=O)C=C2C=C(/C=C/C(=O)O)OC=C2C1=O | > 100 µM | > 100 µM | > 100 µM | > 100 µM | > 100 µM | > 100 µM | > 100 µM | > 100 µM | 99 | > 100 µM |  |  |  |  |  |  |  |  | 
CC(=O)NC1(C(=O)N[C@@H](Cc2ccccc2)C(=O)NC2CCCCC2)Cc2ccc3ccccc3c2-c2c(ccc3ccccc23)C1 | > 100 µM | 29.6 µM and 44 µM | > 100 µM | > 100 µM | > 100 µM | > 100 µM | > 100 µM | > 100 µM and 89.5 µM | > 100 | 22.9 µM and 45.9 µM | 3.32 µM and 7.79 µM | 2.91 µM and 7.77 µM | 2.8 µM and 11.8 µM |  |  |  |  |  | 
CCCC(=O)NC(Nc1ccc(F)cc1)(C(F)(F)F)C(F)(F)F | 67 µM | > 100 µM | > 100 µM | > 100 µM | > 100 µM | > 100 µM | > 100 µM | > 100 µM | > 100 | > 100 µM |  |  |  |  |  |  |  |  | 
COC1(c2cccs2)c2ccccc2C(OC)(c2cccs2)c2ccccc21 (stereo not given) | > 100 µM | > 100 µM | > 100 µM | > 100 µM | > 100 µM | > 100 µM | > 100 µM | > 100 µM | > 100 | > 100 µM |  |  |  |  |  |  |  |  | 
NC(=Nc1ccccc1)c1ccccc1N | > 100 µM | > 100 µM | > 100 µM | > 100 µM | > 100 µM | > 100 µM | > 100 µM | > 100 µM | > 100 | > 100 µM |  |  |  |  |  |  |  |  | 
COC(=O)NC(Cc1ccccc1)NC(C)=O (stereo not given) | > 100 µM | > 100 µM | > 100 µM | > 100 µM | > 100 µM | > 100 µM | > 100 µM | > 100 µM | > 100 | > 100 µM |  |  |  |  |  |  |  |  | 
O=[N+]([O-])c1ccc(N2N=C(c3ccc4ccccc4c3O)CC2c2ccc(Cl)cc2)c([N+](=O)[O-])c1 (stereo not given) | > 100 µM | > 100 µM | 79.9 µM | > 100 µM | > 100 µM | > 100 µM | > 100 µM | > 100 µM | 40.6 | > 100 µM |  |  |  |  |  |  |  |  | 
CCN(CC)CCOC(=O)Cc1cccc2c(=O)cc(-c3ccccc3)oc12 | 62.5 µM and > 212 µM | 62.5 µM | 62.5 µM and > 76.3 µM | 62.5 µM and > 283 µM | 62.5 µM and > 153 µM | 62.5 µM and > 111 µM | 62.5 µM and > 251 µM | 62.5 µM and > 102 µM | 37.9 |  |  | > 43.4 µM | 295 µM | 52.9 | 123 | 85.1 | 36.4 | 123 | 34.1
O=[N+]([O-])c1cccc(Cl)c1Oc1ccc(S(=O)(=O)/N=C(\NO)Nc2ccc(Cl)cc2)cc1 | 29.6 µM | 27.4 µM | 22.6 µM | 50.7 µM | 25 µM | 29.3 µM | 30.3 µM | 24 µM | 21.1 | 23.7 µM |  |  |  |  |  |  |  |  | 
CCCN(CCC)C1CCc2c(ccc3cc[nH]c23)C1 (stereo not given) | > 100 µM | 32.4 µM | > 100 µM | > 100 µM | > 100 µM | > 100 µM | > 100 µM | 59.9 µM | 73.3 | > 100 µM |  |  |  |  |  |  |  |  | 
O=[N+]([O-])c1ccc(O)c(/C=N/c2nc(-c3ccccc3)cs2)c1 | 70.5 µM | > 92.1 µM | > 100 µM | > 91.4 µM | 80.9 µM | > 86.7 µM | > 100 µM | > 61.4 µM | 21.7 | > 86.4 µM |  |  |  |  |  |  |  |  | 
CC12ON(P(=O)(c3ccccc3)c3ccccc3)C(C)(c3ccccc31)c1ccccc12 | > 100 µM | > 100 µM | > 100 µM | > 100 µM | > 100 µM | > 100 µM | > 100 µM | > 100 µM | > 100 | > 100 µM |  |  |  |  |  |  |  |  | 
COC12C=CC(C=C1C#N)CC2 (stereo not given) (tested in a mixture with another compound) | > 100 µM | > 100 µM | > 100 µM | > 100 µM | > 100 µM | > 100 µM | > 100 µM | > 100 µM | > 100 | > 100 µM |  |  |  |  |  |  |  |  | 
